Data as given in patent US20240299334A1, “PHARMACEUTICAL COMPOSITION OF NAPHTHALENE DERIVATIVES AS MULTI-TARGETED THERAPEUTIC AGENTS FOR THE TREATMENT OF ALZHEIMER'S DISEASE” (CENTRO DE NEUROCIENCIAS DE CUBA, CNEURO, priority 2020, published 2024).

Columns and labels:
[1] = tested on: memory loss induced by an acute administration of scopolamine (ESC); test: Y-maze, short-term spatial memory, acute scopolamine (ESC) model; format: in vivo, mice
Procedure: Young male OF-1 mice (20-25 g), supplied by the National Center for the Laboratory Animals Production (CENPALAB, Cuba), were used. Before the experiment, the animals were adapted for seven days to laboratory conditions (controlled temperature 25±2° C., relative humidity 60±10% and light/dark cycles of 12 h). During this period, and during the experiment, the animals received ad libitum water and a standard diet for rodents supplied by CENPALAB. All procedures were carried out in accordance with the European Commission guidelines for the use and care of laboratory animals and approved by the Committee for the Care of Research Animals. The minimum number of animals and duration of observations required to obtain consistent data was used.
At the end of the adaptation period, the animals were randomly distributed according to their body weights in 5 experimental groups of 12 animals per group. Scopolamine hydrobromohydrate (ESC, Sigma Aldrich) was used to induce cognitive deficit, which was dissolved in physiological saline and administered intraperitoneally (ip) at a dose of 1.5 mg/kg, 30 minutes before the test (Miranda H F et al. in. J. Biomed. Sci., 2014 21 (1): 62-62). The doses of compound 3 used were 0.1, 1, 10 and 20 mg/kg of body weight. The compound was formulated using carboxymethyl cellulose (CMC). The administration scheme was designed as follows:
Group 1 (negative control) with normal cognitive function. Two administrations with an interval of 30 minutes with vehicle (5% CMC) by oral route and saline solution by i.p. route, respectively.
Group 2 (positive control) with cognitive dysfunction. Two administrations with an interval of 30 minutes, the first with vehicle (5% CMC), the second with ESC 1 mg/kg.
Group 3, 4, 5 and 6 treated with 3 (0.1, 1, 10 and 20 mg/kg). Two administrations with an interval of 30 minutes, the first with 3 at the dose corresponding to each group, the second with ESC 1 mg/kg. The behavioral evaluation was carried out 30 minutes after this second administration.
The study of short-term spatial memory was carried out through the study of novel spatial preference, using the Y-maze behavioral paradigm (40 cm long×9 cm wide×16 cm high) with extra-labyrinthine tracks around of the maze. The test consisted of two trials separated by an interval of 2 hours. In the first training test (acquisition), the mice were placed in the center of the maze and facing the end of one of the arms whose selection was random. After being positioned, they were allowed to explore the maze for 10 minutes with one of the arms closed (novel arm). At the end of this test, the mice were returned to their original cage until the second test (recovery), during which they could freely explore the three arms of the maze for 5 minutes. The total residence time (exploration) in each arm was measured and analyzed from video recordings. The entrance to the arm was defined as the entrance of the four legs of the animal in said arm. The residence time (sec) in each arm during the recovery test of the learned task was used for the statistical analysis. The maze was cleaned with 70% ethanol between runs. All mice were transported to the behavioral testing room in their home cages at least 1 day prior to testing. The experiments were carried out between 8:00 am and 12:30 pm.
All data are expressed as the mean±standard error of the mean (SEM). The Morris water maze data was analyzed in two ways. Escape latencies in the visible platform training phase were analyzed using a two-factor ANOVA (treatment×trial). For the study of long-term memory, the last escape latency value of the training phase with the visible platform (D1 V4) and the first value of the test with the hidden platform performed 24 h later (D2T1) were used. Mice with intact long-term memory capacity should quickly reach the hidden platform in the first test. A scoring system was generated with the difference D2T1−D1 V4 and with the ratio D2T1/D1V4. […]

[2] = tested on: mitochondria isolated from rat liver; test: Mitochondrial swelling induced by Ca2+ and Pi (absorbance 540 nm); format: biochemical; conditions: induced by 50 μmol/L Ca2+ and 2 mmol/L Pi; similar concentrations (0.1-100 μmol/L)
From the text: In this case, it was observed that in the control group (in the presence of Ca^2+) the maximum absorbance values are shown, as a measure of maximum swelling. […] These effects correspond to the observed effects on the dissipation of the mitochondria membrane potential.
Isolation of rat mitochondria: Mitochondria were isolated by the classical method of differential centrifugation from the liver of male Wistar rats (Mirandola S R, et al., in J Neurosci Res 2010; 88: 630-39). […]
(§1) Mitochondrial membrane potential and ROS were determined by spectrophotometry, using as fluorescent probes, respectively, safranin (10 μmol/L) (Zanotti A., and Azzone G F in Archives of Biochemistry and Biophysics 1980, 201 (1), 255-265) and Amplex Red (Molecular Probes, OR, Eugene) in the presence of horseradish peroxidase (1 IU/mL) (Votyakova and Reynolds, in J Neurochem. 2001, 79 (2), 266-77). Measurements were made in a Hitachi fluorescence spectrophotometer, model F-4500 (Tokyo, Japan) at λexc 495/λem 586 nm (safranin) and at λexc 563/λem 587 nm (Amplex Red). […]
Data analysis: In all cases, the normal distribution and homogeneity of variances of the data were evaluated using the Kolmogorov Smirnov and Levene tests, respectively. […]

[3] = tested on: mitochondria isolated from rat liver; test: Production of H2O2 / reactive oxygen species (Amplex Red) in isolated mitochondria; format: biochemical; conditions: dose range tested (0.1-100 μmol/L)
Procedure: Isolation of rat mitochondria: Mitochondria were isolated by the classical method of differential centrifugation from the liver of male Wistar rats (Mirandola S R, et al., in J Neurosci Res 2010; 88: 630-39).
Incubation procedures: Mitochondria were energized with 5 mmol/L potassium succinate (plus 2.5 μmol/L rotenone) in standard incubation medium containing 125 mmol/L sucrose, 65 mmol/L KCl and 10 mmol/L of HEPES-KOH, pH 7.4, at 30° C.
as §1, with “Red). These experiments were carried out in the presence of 0.1 mmol/L of EGTA and the evaluated compound was N-[4-(1-naphthylamino)-4-oxobutanoyl]-β-alanine (1) in a concentration range of 0.1 to 100 μmol/L. Mitochondrial swelling was estimated spectrophotometrically from the decrease in absorbance at 540 nm, using a Hitachi spectrophotometer, Model U-2910 (Japan).” for “Red).”

With `CN1[C@@H]2C[C@@H](OC(=O)[C@H](CO)c3ccccc3)C[C@H]1[C@@H]1O[C@@H]12` [ESC, Scopolamine hydrobromohydrate, reference compound] the “residence time in the novel arm” value ([1]; ESC group (control group 133.8±9.3 sec), p<0.001) was 98.8 ± 4.2 s.
For `COc1cc2c(cc1OC)C(=O)C(CC1CCN(Cc3ccccc3)CC1)C2` (centres unmarked) [donepezil, reference compound], the “deficit induced by ESC in Y-maze” value ([1]; donepezil 1 mg/kg, ip, 30 minutes before the test) was “also reversed the deficit induced by ESC” and the “residence time in the novel arm” value ([1]; donepezil group vs ESC) was “significantly longer than that of ESC”.
`O=C(O)CCNC(=O)CCC(=O)Nc1cccc2ccccc12` [compound 1, N-[4-(1-naphthylamino)-4-oxobutanoyl]-β-alanine] was tested, and the “mitochondrial swelling (absorbance at 540 nm)” value [2] was “reverses the effect of Ca^2+-induced swelling” and the “production of hydrogen peroxide (H2O2)” value [3] was “protects against H2O2 production”.
